How the values were obtained:
AAD-12 (v2) = biological target: T1, AAD-12 (v2) (Delftia acidovorans, UniProt P83309); test: Colorimetric phenol detection assay of AAD-12 activity; type: biochemical; settings: for activity of AAD-12 (v2) on substrate (absorbance at 510 nm, FIG. 3): 4.4 μg AAD-12 (v2), 0.5 mM substrate, 5 minutes
T1 construct: made in house; host or cells: Pseudomonas fluorescens strain MB324 (construct pDAB739)
Protocol: Enzyme activity was measured by colorimetric detection of the product phenol using a protocol modified from that of Fukumori and Hausinger (1993) (J. Biol. Chem. 268: 24311-24317) to enable deployment in a 96-well microplate format. The colorimetric assay has been described for use in measuring the activity of dioxygenases cleaving 2,4-D and dichlorprop to release the product 2,4-dichlorophenol. The color yield from several phenols was compared to that of 2,4-dichlorophenol using the detection method previously described to ascertain which phenol products could be readily detected. […] Pyridinols derived from fluroxypyr and triclopyr produced no significant color. The color yield of 2,4-dichlorophenol was linear and proportional to the concentration of phenol in the assay up to ˜500 μM.
Assays were initiated by addition of the aryloxyalkanoate substrate, enzyme or α-ketoglutarate at time zero. After 5 minutes of incubation at 25° C., the reaction was terminated by addition of 30 μl of a 1:1:1 mix of 50 mM Na EDTA; pH 10 buffer (3.09 g boric acid+3.73 g KCl+44 ml 1 N KOH) and 0.2% 4-aminoantipyrine. Then 10 μl 0.8% potassium ferricyanide was added and after 5 or 10 min, the absorbance at 510 nm was recorded in a spectrophotometric microplate reader. Blanks contained all reagents except for enzyme to account for the occasional slight contamination of some of the substrates by small amounts of phenols.
The results are shown in FIG. 3, which illustrates activity of AAD-12 (v2) on 2,4-D and enantiomers of dichlorprop. 4.4 μg AAD-12 (v2) was incubated with 0.5 mM substrate (1 mM for (R,S)-dichlorprop) and the reaction initiated by addition of α-ketoglutarate. After 5 minutes, the reaction was quenched, and the absorbance at 510 nm determined after addition of colorimetric detection reagents. The background value without enzyme was subtracted.

[1] = test system: Segregating T2 AAD-12 (v1) plants (pDAB724.01.1.20); test: Foliar-applied auxinic herbicides on T2 Arabidopsis; type: in vivo, Arabidopsis thaliana; settings: Pyridyloxyacetic auxins
Protocol: The ability of AAD-12 (v1) to provide resistance to other aryloxyalkanoate auxin herbicides in transgenic Arabidopsis was determined by foliar application of various substrates. T2 generation Arabidopsis seed was stratified, and sown into selection trays much like that of Arabidopsis (Example 6.4). A transformed-control line containing PAT and the insect resistance gene Cry1F was planted in a similar manner. Seedlings were transferred to individual 3-inch pots in the greenhouse. All plants were sprayed with the use of a track sprayer set at 187 L/ha. The plants were sprayed with a range of pyridyloxyacetate herbicides: 280-2240 g ae/ha triclopyr (Garlon 3A, Dow AgroSciences) and 280-2240 g ae/ha fluroxypyr (Starane, Dow AgroSciences); and the 2,4-D metabolite resulting from AAD-12 activity, 2,4-dichlorophenol (DCP, Sigma) (at a molar equivalent to 280-2240 g ac/ha of 2,4-D, technical grade DCP was used). All applications were formulated in water. Each treatment was replicated 3-4 times. Plants were evaluated at 3 and 14 days after treatment.

T1 sequence (P83309 whole entry, looked up, natural form): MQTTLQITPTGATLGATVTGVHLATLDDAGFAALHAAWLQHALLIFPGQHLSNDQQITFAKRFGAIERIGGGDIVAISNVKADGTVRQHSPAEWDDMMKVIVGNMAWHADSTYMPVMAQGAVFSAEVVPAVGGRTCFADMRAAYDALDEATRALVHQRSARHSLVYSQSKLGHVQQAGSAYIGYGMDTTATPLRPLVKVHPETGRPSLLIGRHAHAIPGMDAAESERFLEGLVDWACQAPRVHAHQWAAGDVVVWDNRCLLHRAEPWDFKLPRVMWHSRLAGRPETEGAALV

Compound	activity of AAD-12 (v2) on substrate (absorbance at 510 nm, FIG. 3) (AAD-12 (v2))	inhibition at 2000 µM (AAD-12 (v2); read-out: Substrate inhibition at 2 mM)	Ave % Injury 14DAT ([1]; 280 g ae/ha foliar)	Ave % Injury 14DAT ([1]; 560 g ae/ha foliar)	Ave % Injury 14DAT ([1]; 1120 g ae/ha foliar)	Ave % Injury 14DAT ([1]; 2240 g ae/ha foliar)
O=C(O)COc1ccc(Cl)cc1Cl [2,4-D, 2,4-dichlorophenoxyacetic acid]	equivalent to that on (S)-dichlorprop	55%	–	–	–	–
C[C@@H](Oc1ccc(Cl)cc1Cl)C(=O)O [(R)-dichlorprop, R-2,4-dichlorophenoxypropionic acid]	minimal activity	–	–	–	–	–
Nc1c(Cl)c(F)nc(OCC(=O)O)c1Cl [Fluroxypyr]	–	–	0%	2%	3%	5%
O=C(O)COc1nc(Cl)c(Cl)cc1Cl [triclopyr]	–	–	0%	3%	0%	3%
